Results from ChEMBL document CHEMBL3228036, “A new chemical series active against African trypanosomes: benzyltriphenylphosphonium salts” (J Med Chem, 1979).
The source made the active and inactive calls. No cut-off for these calls is given here.

Columns and labels:
Mus musculus [1] = test: Toxicity in Trypanosoma brucei rhodesiense Wellcome CT infected ICR/HA mouse assessed as mortality at 212 mg/kg, sc treated within 2 hrs of parasite infection measured up to 30 days; format: organism-based; set-up: dose 212 mg/kg, route subcutaneous; conditions: in vivo
[2] = tested on: Trypanosoma brucei rhodesiense; test: […] activity against Trypanosoma brucei rhodesiense Wellcome CT infected in ICR/HA mouse assessed as curated mouse at 13.3 mg/kg, po treated within 2 hrs of parasite infection measured up to 30 days; format: functional, organism-based; set-up: dose 13.3 mg/kg
[3] = tested on: Trypanosoma brucei rhodesiense; test: […] activity against Trypanosoma brucei rhodesiense Wellcome CT infected in ICR/HA mouse assessed as curated mouse at 212 mg/kg, sc treated within 2 hrs of parasite infection measured up to 30 days; format: functional, organism-based; set-up: dose 212 mg/kg
Mus musculus [4] = test: Toxicity in Trypanosoma brucei rhodesiense Wellcome CT infected ICR/HA mouse assessed as mortality at 424 mg/kg, po treated within 2 hrs of parasite infection measured up to 30 days; format: organism-based; set-up: dose 424 mg/kg, route oral; conditions: in vivo
[5] = tested on: Trypanosoma brucei rhodesiense; test: […] activity against Trypanosoma brucei rhodesiense Wellcome CT infected in ICR/HA mouse assessed as curated mouse at 424 mg/kg, po treated within 2 hrs of parasite infection measured up to 30 days; format: functional, organism-based; set-up: dose 424 mg/kg
[6] = tested on: Trypanosoma brucei rhodesiense; test: […] activity against Trypanosoma brucei rhodesiense Wellcome CT infected in ICR/HA mouse assessed as curated mouse at 212 mg/kg, po treated within 2 hrs of parasite infection measured up to 30 days; format: functional, organism-based; set-up: dose 212 mg/kg
[7] = tested on: Trypanosoma brucei rhodesiense; test: […] activity against Trypanosoma brucei rhodesiense Wellcome CT infected in ICR/HA mouse assessed as curated mouse at 424 mg/kg, sc treated within 2 hrs of parasite infection measured up to 30 days; format: functional, organism-based; set-up: dose 424 mg/kg
Mus musculus [8] = test: Toxicity in Trypanosoma brucei rhodesiense Wellcome CT infected ICR/HA mouse assessed as mortality at 424 mg/kg, sc treated within 2 hrs of parasite infection measured up to 30 days; format: organism-based; set-up: dose 424 mg/kg, route subcutaneous; conditions: in vivo
[9] = tested on: Trypanosoma brucei rhodesiense; test: […] activity against Trypanosoma brucei rhodesiense Wellcome CT infected in ICR/HA mouse assessed as curated mouse at 53 mg/kg, po treated within 2 hrs of parasite infection measured up to 30 days; format: functional, organism-based; set-up: dose 53 mg/kg
[10] = tested on: Trypanosoma brucei rhodesiense; test: […] activity against Trypanosoma brucei rhodesiense Wellcome CT infected in ICR/HA mouse assessed as curated mouse at 26.5 mg/kg, po treated within 2 hrs of parasite infection measured up to 30 days; format: functional, organism-based; set-up: dose 26.5 mg/kg
[11] = tested on: Trypanosoma brucei rhodesiense; test: […] activity against Trypanosoma brucei rhodesiense Wellcome CT infected in ICR/HA mouse assessed as curated mouse at 26.5 mg/kg, sc treated within 2 hrs of parasite infection measured up to 30 days; format: functional
Mus musculus [12] = test: Toxicity in Trypanosoma brucei rhodesiense Wellcome CT infected ICR/HA mouse assessed as mortality at 212 mg/kg, po treated within 2 hrs of parasite infection measured up to 30 days; format: organism-based; set-up: dose 212 mg/kg, route oral; conditions: in vivo
[13] = tested on: Trypanosoma brucei rhodesiense; test: […] activity against Trypanosoma brucei rhodesiense Wellcome CT infected in ICR/HA mouse assessed as curated mouse at 6.5 mg/kg, sc treated within 2 hrs of parasite infection measured up to 30 days; format: functional, organism-based; set-up: dose 6.5 mg/kg
[14] = tested on: Trypanosoma brucei rhodesiense; test: […] activity against Trypanosoma brucei rhodesiense Wellcome CT infected in ICR/HA mouse assessed as curated mouse at 13.3 mg/kg, sc treated within 2 hrs of parasite infection measured up to 30 days; format: functional, organism-based; set-up: dose 13.3 mg/kg
[15] = tested on: Trypanosoma brucei rhodesiense; test: […] activity against Trypanosoma brucei rhodesiense Wellcome CT infected in ICR/HA mouse assessed as curated mouse at 106 mg/kg, po treated within 2 hrs of parasite infection measured up to 30 days; format: functional, organism-based; set-up: dose 106 mg/kg
[16] = tested on: Trypanosoma brucei rhodesiense; test: […] activity against Trypanosoma brucei rhodesiense Wellcome CT infected in ICR/HA mouse assessed as curated mouse at 106 mg/kg, sc treated within 2 hrs of parasite infection measured up to 30 days; format: functional, organism-based; set-up: dose 106 mg/kg
[17] = tested on: Trypanosoma brucei rhodesiense; test: […] activity against Trypanosoma brucei rhodesiense Wellcome CT infected in ICR/HA mouse assessed as curated mouse at 53 mg/kg, sc treated within 2 hrs of parasite infection measured up to 30 days; format: functional, organism-based; set-up: dose 53 mg/kg

SMILES: Cc1ccc([P+](Cc2ccccc2)(c2ccccc2)c2ccccc2)cc1.[Cl-]
- Activity (Mus musculus [1]): Toxic
- Activity [2]: inactive
- Activity [3]: inactive
- Activity (Mus musculus [4]): Toxic
- Activity [5]: inactive
- Activity [6]: inactive
- Activity [7]: inactive
- Activity (Mus musculus [8]): Toxic
- Activity [9]: inactive
- Activity [10]: inactive
- Activity [11]: inactive
- Activity (Mus musculus [12]): Toxic
- Activity [13]: inactive
- Activity [14]: inactive
- Activity [15]: inactive

SMILES: Cc1ccc(C[P+](c2ccccc2)(c2ccccc2)c2ccccc2)cc1.[Cl-]
- Activity (Mus musculus [8]): Toxic
- Activity ([11]; route subcutaneous): 20%

SMILES: Cc1ccccc1[P+](Cc1ccccc1)(c1ccccc1)c1ccccc1.[Cl-]
- Activity [16]: inactive
- Activity [2]: inactive
- Activity (Mus musculus [4]): Toxic
- Activity [5]: inactive
- Activity [7]: inactive
- Activity (Mus musculus [8]): Toxic
- Activity [9]: inactive
- Activity [10]: inactive
- Activity [13]: inactive
- Activity [14]: inactive
- Activity [17]: inactive

SMILES: CC(C)(C)c1cc(C[P+](c2ccccc2)(c2ccccc2)c2ccccc2)cc(C(C)(C)C)c1O.[Br-]
- Activity [16]: inactive
- Activity [2]: inactive
- Activity [3]: inactive
- Activity [5]: inactive
- Activity [6]: inactive
- Activity [7]: inactive
- Activity [9]: inactive
- Activity [10]: inactive
- Activity [11]: inactive
- Activity (Mus musculus [12]): Toxic
- Activity [14]: inactive
- Activity [17]: inactive
- Activity [15]: inactive

SMILES: Cc1ccccc1[P+](Cc1ccccc1)(c1ccccc1C)c1ccccc1C.[Cl-]
- Activity [16]: inactive
- Activity [2]: inactive
- Activity (Mus musculus [4]): Toxic
- Activity [5]: inactive
- Activity [7]: inactive
- Activity (Mus musculus [8]): Toxic
- Activity [10]: inactive
- Activity [11]: inactive
- Activity [14]: inactive
- Activity [15]: inactive

SMILES: C=CC[P+](c1ccccc1)(c1ccccc1)c1ccccc1.[Br-]
- Activity [5]: inactive
- Activity [7]: inactive
- Activity (Mus musculus [8]): Toxic
- Activity [11]: inactive
- Activity [14]: inactive

SMILES: Cc1ccc(C[P+](c2ccccc2)(c2ccccc2)c2ccccc2)cc1
- Activity [16]: inactive
- Activity [2]: inactive
- Activity [3]: inactive
- Activity [5]: inactive
- Activity [6]: inactive
- Activity [7]: inactive
- Activity [9]: inactive
- Activity [10]: inactive
- Activity [11]: inactive
- Activity [13]: inactive
- Activity [14]: inactive
- Activity [17]: inactive
- Activity [15]: inactive

SMILES: [Br-].c1ccc([P+](c2ccccc2)(c2ccccc2)c2ccccc2)cc1 [TETRAPHENYLPHOSPHONIUM BROMIDE]
- Activity [16]: inactive
- Activity (Mus musculus [1]): Toxic
- Activity [3]: inactive
- Activity [5]: inactive
- Activity [7]: inactive
- Activity (Mus musculus [8]): Toxic
- Activity [11]: inactive

SMILES: Clc1ccc(OC[P+](c2ccccc2)(c2ccccc2)c2ccccc2)cc1.[Cl-]
- Activity [5]: inactive
- Activity [7]: inactive
- Activity (Mus musculus [8]): Toxic
- Activity [11]: inactive
- Activity [14]: inactive

SMILES: Clc1ccccc1C[P+](c1ccccc1)(c1ccccc1)c1ccccc1.[Cl-]
- Activity (Mus musculus [1]): Toxic
- Activity [2]: inactive
- Activity [3]: inactive
- Activity (Mus musculus [4]): Toxic
- Activity [5]: inactive
- Activity [6]: inactive
- Activity [7]: inactive
- Activity (Mus musculus [8]): Toxic
- Activity [9]: inactive
- Activity [10]: inactive
- Activity (Mus musculus [12]): Toxic
- Activity [14]: inactive
- Activity [15]: inactive

SMILES: COC(=O)c1ccccc1C[P+](c1ccccc1)(c1ccccc1)c1ccccc1
- Activity [11]: inactive
- Activity [14]: inactive

SMILES: Cc1ccccc1C[P+](c1ccccc1)(c1ccccc1)c1ccccc1.[Cl-]
- Activity (Mus musculus [1]): Toxic
- Activity (Mus musculus [8]): Toxic
- Activity ([11]; route subcutaneous): 40%

SMILES: Cc1ccccc1C[P+](c1ccccc1)(c1ccccc1)c1ccccc1.[Br-]
- Activity (Mus musculus [1]): Toxic
- Activity (Mus musculus [4]): Toxic
- Activity (Mus musculus [8]): Toxic

SMILES: Cc1ccccc1C[P+](c1ccccc1)(c1ccccc1)c1ccccc1
- Activity [16]: inactive
- Activity [2]: inactive
- Activity [3]: inactive
- Activity [5]: inactive
- Activity [6]: inactive
- Activity [7]: inactive
- Activity [9]: inactive
- Activity [10]: inactive
- Activity [11]: inactive
- Activity [14]: inactive
- Activity [17]: inactive
- Activity [15]: inactive

SMILES: CCOc1ccc(C[P+](c2ccccc2)(c2ccccc2)c2ccccc2)cc1.[Cl-]
- Activity (Mus musculus [1]): Toxic
- Activity [3]: inactive
- Activity [7]: inactive
- Activity (Mus musculus [8]): Toxic
- Activity [11]: inactive
- Activity [14]: inactive

SMILES: Cc1cccc([P+](Cc2ccccc2)(c2cccc(C)c2)c2cccc(C)c2)c1.[Cl-]
- Activity [16]: inactive
- Activity [2]: inactive
- Activity [7]: inactive
- Activity (Mus musculus [8]): Toxic
- Activity [9]: inactive
- Activity [10]: inactive
- Activity [14]: inactive
- Activity [15]: inactive

SMILES: [Br-].c1ccc([P+](Cc2cccc3cccnc23)(c2ccccc2)c2ccccc2)cc1
- Activity [7]: inactive
- Activity (Mus musculus [8]): Toxic
- Activity [11]: inactive
- Activity [14]: inactive
- Activity [17]: inactive

SMILES: Cc1ccccc1[P+](Cc1ccccc1)(c1ccccc1)c1ccccc1C.[Cl-]
- Activity (Mus musculus [1]): Toxic
- Activity [2]: inactive
- Activity [3]: inactive
- Activity [5]: inactive
- Activity [6]: inactive
- Activity [7]: inactive
- Activity (Mus musculus [8]): Toxic
- Activity [9]: inactive
- Activity (Mus musculus [12]): Toxic
- Activity [14]: inactive

SMILES: Cc1ccc(C[P+](c2ccccc2)(c2ccccc2)c2ccccc2)cc1.[Br-]
- Activity (Mus musculus [1]): Toxic
- Activity (Mus musculus [4]): Toxic
- Activity (Mus musculus [8]): Toxic
- Activity (Mus musculus [12]): Toxic

SMILES: [I-].c1ccc(CC(c2ccccc2)[P+](c2ccccc2)(c2ccccc2)c2ccccc2)cc1 (stereo unspecified)
- Activity [16]: inactive
- Activity [5]: inactive
- Activity [7]: inactive
- Activity (Mus musculus [8]): Toxic
- Activity [11]: inactive
- Activity [14]: inactive

SMILES: [Br-].c1ccc(C[P+](c2ccccc2)(c2ccccc2)c2ccccc2)cc1
- Activity [16]: inactive
- Activity [2]: inactive
- Activity [6]: inactive
- Activity [7]: inactive
- Activity (Mus musculus [8]): Toxic
- Activity [9]: inactive
- Activity [10]: inactive
- Activity [11]: inactive
- Activity (Mus musculus [12]): Toxic
- Activity [13]: inactive
- Activity [14]: inactive
- Activity [17]: inactive

SMILES: N=C(N)c1ccc(/C=C/c2ccc(C(=N)N)cc2O)cc1 [HYDROXYSTILBAMIDINE]
- Activity ([11]; route subcutaneous): 71%

SMILES: CCCCCCCCCCCC[P+](c1ccccc1)(c1ccccc1)c1ccccc1
- Activity [16]: inactive
- Activity [3]: inactive
- Activity [5]: inactive
- Activity [7]: inactive
- Activity [11]: inactive
